Experimental data reported in patent US20050282755A1, “Compositions having antimicrobial activity and uses thereof” (priority 2004, published 2005).
Residues, ends and D or L forms follow the SMILES beside them.

Key:
[1] = test system: Staphylococcus aureus ATCC 29213; assay: MIC, NCCLS M7-A6 broth microdilution, cation-adjusted Mueller Hinton broth (Table 9, no superscript); type: cell-based; details: ATCC 29213
Experimental: (§1) Cation-adjusted Mueller Hinton broth was used in the broth microdilution method. In brief, a log-phase bacterial suspension was used to inoculate wells of a 96-well plate so that the final inoculum for each well contained 5×10^5 to 1×10^6 CFU/milliliter. […] Plates were incubated overnight at 37° C. The lowest concentration of peptide that contained no visible growth as evidenced by a lack of turbidity when compared to the control (no peptide) was determined as the MIC. Unless otherwise noted, MIC values listed in Table 9 utilized this method of MIC determination.

[2] = test system: Salmonella dublin (Lane); assay: MIC, NCCLS M7-A6 broth microdilution (Table 9, no superscript); type: cell-based
Experimental: as §1

| Structure (SMILES) | MIC S. aureus [1] [µg/mL] | MIC S. dublin [2] [µg/mL] |
| --- | --- | --- |
| CSCC[C@H](NC(=O)[C@H](Cc1ccccc1)NC(=O)[C@H](CC(N)=O)NC(=O)[C@H](CCCNC(=N)N)NC(=O)[C@H](CO)NC(=O)[C@H](Cc1c[nH]c2ccccc12)NC(=O)[C@H](CC(=O)O)NC(=O)[C@H](CCCNC(=N)N)NC(=O)[C@H](Cc1c[nH]c2ccccc12)NC(=O)[C@H](CCCNC(=N)N)NC(=O)[C@H](CO)NC(=O)[C@H](CCCNC(=N)N)NC(=O)CNC(=O)[C@@H](NC(=O)[C@H](CCCNC(=N)N)NC(=O)[C@H](CO)NC(=O)[C@@H](NC(=O)[C@H](CCCNC(=N)N)NC(=O)[C@@H](NC(C)=O)[C@@H](C)O)C(C)C)[C@@H](C)O)C(=O)N[C@@H](CCCNC(=N)N)C(=O)N[C@@H](C)C(=O)N[C@@H](C)C(=O)N[C@@H](CCCCN)C(=O)N[C@@H](CCCCN)C(=O)N[C@@H](CCCCN)C(=O)N[C@@H](CCCCN)C(N)=O [Peptide 5] (Ac-TRVSRTGRSRWRDWSRNFMRAAKKKK-NH2) | >64 | >64 |
| CSCC[C@H](NC(=O)[C@H](Cc1ccccc1)NC(=O)[C@H](CC(N)=O)NC(=O)[C@H](CCCNC(=N)N)NC(=O)[C@H](CO)NC(=O)[C@H](Cc1c[nH]c2ccccc12)NC(=O)[C@H](CC(=O)O)NC(=O)[C@H](CCCNC(=N)N)NC(=O)[C@H](Cc1c[nH]c2ccccc12)NC(=O)[C@H](CCCNC(=N)N)NC(=O)[C@H](CO)NC(=O)[C@H](CCCNC(=N)N)NC(=O)CNC(=O)[C@@H](NC(=O)[C@H](CCCNC(=N)N)NC(=O)[C@H](CO)NC(=O)[C@@H](NC(=O)[C@H](CCCNC(=N)N)NC(=O)[C@@H](NC(C)=O)[C@@H](C)O)C(C)C)[C@@H](C)O)C(=O)N[C@@H](CCCNC(=N)N)C(=O)N[C@@H](C)C(=O)N[C@@H](C)C(=O)N[C@@H](CCCCN)C(=O)N[C@@H](CCCCN)C(=O)N[C@@H](CCCCN)C(=O)N[C@@H](CCCCN)C(=O)N[C@@H](CCCCN)C(N)=O [Peptide 6] (Ac-TRVSRTGRSRWRDWSRNFMRAAKKKKK-NH2) | >64 | >64 |
| CSCC[C@H](NC(=O)[C@H](Cc1ccccc1)NC(=O)[C@H](CC(N)=O)NC(=O)[C@H](CCCNC(=N)N)NC(=O)[C@H](CO)NC(=O)[C@H](Cc1c[nH]c2ccccc12)NC(=O)[C@H](CC(=O)O)NC(=O)[C@H](CCCNC(=N)N)NC(=O)[C@H](Cc1c[nH]c2ccccc12)NC(=O)[C@H](CCCNC(=N)N)NC(=O)[C@H](CO)NC(=O)[C@H](CCCNC(=N)N)NC(=O)CNC(=O)[C@@H](NC(=O)[C@H](CCCNC(=N)N)NC(=O)[C@H](CO)NC(=O)[C@@H](NC(=O)[C@H](CCCNC(=N)N)NC(=O)[C@@H](NC(C)=O)[C@@H](C)O)C(C)C)[C@@H](C)O)C(=O)N[C@@H](CCCNC(=N)N)C(=O)N[C@@H](C)C(=O)N[C@@H](C)C(=O)N[C@@H](CCCCN)C(=O)N[C@@H](CCCCN)C(=O)N[C@@H](CCCCN)C(=O)N[C@@H](CCCCN)C(=O)N[C@@H](CCCCN)C(=O)N[C@@H](CCCCN)C(N)=O [Peptide 7] (Ac-TRVSRTGRSRWRDWSRNFMRAAKKKKKK-NH2) | >64 | >64 |
